Laboratory results taken from US9267165B2, “Assays and kits for detecting protein binding” (DiscoveRx Corporation, priority 2002, dated 2016).
Read-outs that look alike come from different tables or passages of the source.

Assays:
EGFR = EGFR (Homo sapiens, UniProt P00533); details: IC50, Ki or Kd from the literature; cited from earlier work
ERBB2 = ERBB2 (Homo sapiens, UniProt P04626); details: IC50, Ki or Kd from the literature; cited from earlier work
p38α [1] = biological target: T1, p38α (Homo sapiens, UniProt Q16539); assay: Competition binding assay, phage-displayed kinase vs immobilized ATP-site ligand (SB202190); set-up: the coding region for p38α was cloned into the phage genome in-frame with the gene encoding the major T7 capsid protein; made in house; host or cells: T7 phage grown in E. coli (BLT 5615 in the illustrative protocol); lysate used directly
T1 sequence (Q16539 whole entry): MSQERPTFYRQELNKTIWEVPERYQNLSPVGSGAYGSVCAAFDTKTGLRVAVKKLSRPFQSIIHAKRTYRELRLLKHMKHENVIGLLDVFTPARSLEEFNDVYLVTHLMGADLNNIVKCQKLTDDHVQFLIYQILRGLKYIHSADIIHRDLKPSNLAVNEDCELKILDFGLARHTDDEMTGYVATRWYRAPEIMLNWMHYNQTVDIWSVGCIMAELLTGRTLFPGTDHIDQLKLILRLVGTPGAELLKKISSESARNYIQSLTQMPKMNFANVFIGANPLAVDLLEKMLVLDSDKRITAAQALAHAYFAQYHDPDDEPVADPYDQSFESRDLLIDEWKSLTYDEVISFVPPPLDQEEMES

p38α [2] = biological target: T1, p38α; details: IC50, Ki or Kd from the literature; cited from earlier work
JNK2 = JNK2 (Homo sapiens, UniProt P45984); details: IC50, Ki or Kd from the literature; cited from earlier work
Chain of JNK2 (P45984 whole entry, species assumed): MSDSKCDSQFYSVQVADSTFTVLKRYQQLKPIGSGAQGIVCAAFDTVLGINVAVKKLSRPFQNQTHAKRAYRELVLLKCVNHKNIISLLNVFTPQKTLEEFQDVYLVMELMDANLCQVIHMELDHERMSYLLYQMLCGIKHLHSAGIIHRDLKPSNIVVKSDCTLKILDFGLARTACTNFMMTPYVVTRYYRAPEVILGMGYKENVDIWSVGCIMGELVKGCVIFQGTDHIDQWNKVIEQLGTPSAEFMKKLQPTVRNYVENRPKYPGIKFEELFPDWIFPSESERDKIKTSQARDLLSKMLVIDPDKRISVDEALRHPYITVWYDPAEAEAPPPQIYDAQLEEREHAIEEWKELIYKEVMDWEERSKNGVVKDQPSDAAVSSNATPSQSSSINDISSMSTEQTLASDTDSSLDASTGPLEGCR

Chain of EGFR (P00533 25-1210, species assumed): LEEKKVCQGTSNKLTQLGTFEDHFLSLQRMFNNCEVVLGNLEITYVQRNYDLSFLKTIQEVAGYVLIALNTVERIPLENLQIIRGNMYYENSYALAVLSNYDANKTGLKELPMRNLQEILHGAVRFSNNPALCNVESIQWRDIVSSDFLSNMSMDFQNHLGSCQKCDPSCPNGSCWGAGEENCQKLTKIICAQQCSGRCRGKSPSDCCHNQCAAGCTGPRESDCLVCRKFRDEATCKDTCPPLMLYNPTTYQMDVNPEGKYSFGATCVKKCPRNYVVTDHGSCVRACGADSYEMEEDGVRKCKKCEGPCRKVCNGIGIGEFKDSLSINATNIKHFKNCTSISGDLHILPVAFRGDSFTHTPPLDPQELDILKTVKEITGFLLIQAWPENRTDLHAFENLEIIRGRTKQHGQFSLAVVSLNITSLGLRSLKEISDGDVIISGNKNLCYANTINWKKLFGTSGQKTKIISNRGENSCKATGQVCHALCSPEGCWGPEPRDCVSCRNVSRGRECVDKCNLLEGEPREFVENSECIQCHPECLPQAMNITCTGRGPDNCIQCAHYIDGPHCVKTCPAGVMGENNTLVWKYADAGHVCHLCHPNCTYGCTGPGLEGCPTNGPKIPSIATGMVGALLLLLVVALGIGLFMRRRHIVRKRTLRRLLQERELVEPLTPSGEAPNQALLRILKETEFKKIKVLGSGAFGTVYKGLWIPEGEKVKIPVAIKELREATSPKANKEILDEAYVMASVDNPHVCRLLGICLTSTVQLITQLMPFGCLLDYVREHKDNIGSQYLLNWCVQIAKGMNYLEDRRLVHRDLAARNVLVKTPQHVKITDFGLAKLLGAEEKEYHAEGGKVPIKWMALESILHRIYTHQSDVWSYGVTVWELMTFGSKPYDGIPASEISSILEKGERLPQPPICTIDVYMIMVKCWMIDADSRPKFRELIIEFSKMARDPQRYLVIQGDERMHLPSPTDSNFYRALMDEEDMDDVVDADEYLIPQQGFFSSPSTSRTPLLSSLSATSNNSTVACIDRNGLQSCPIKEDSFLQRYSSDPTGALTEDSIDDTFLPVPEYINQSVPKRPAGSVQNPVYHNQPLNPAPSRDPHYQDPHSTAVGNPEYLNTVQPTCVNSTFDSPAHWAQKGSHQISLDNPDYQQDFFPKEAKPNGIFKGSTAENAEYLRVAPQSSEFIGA
Chain of ERBB2 (P04626 23-1255, species assumed): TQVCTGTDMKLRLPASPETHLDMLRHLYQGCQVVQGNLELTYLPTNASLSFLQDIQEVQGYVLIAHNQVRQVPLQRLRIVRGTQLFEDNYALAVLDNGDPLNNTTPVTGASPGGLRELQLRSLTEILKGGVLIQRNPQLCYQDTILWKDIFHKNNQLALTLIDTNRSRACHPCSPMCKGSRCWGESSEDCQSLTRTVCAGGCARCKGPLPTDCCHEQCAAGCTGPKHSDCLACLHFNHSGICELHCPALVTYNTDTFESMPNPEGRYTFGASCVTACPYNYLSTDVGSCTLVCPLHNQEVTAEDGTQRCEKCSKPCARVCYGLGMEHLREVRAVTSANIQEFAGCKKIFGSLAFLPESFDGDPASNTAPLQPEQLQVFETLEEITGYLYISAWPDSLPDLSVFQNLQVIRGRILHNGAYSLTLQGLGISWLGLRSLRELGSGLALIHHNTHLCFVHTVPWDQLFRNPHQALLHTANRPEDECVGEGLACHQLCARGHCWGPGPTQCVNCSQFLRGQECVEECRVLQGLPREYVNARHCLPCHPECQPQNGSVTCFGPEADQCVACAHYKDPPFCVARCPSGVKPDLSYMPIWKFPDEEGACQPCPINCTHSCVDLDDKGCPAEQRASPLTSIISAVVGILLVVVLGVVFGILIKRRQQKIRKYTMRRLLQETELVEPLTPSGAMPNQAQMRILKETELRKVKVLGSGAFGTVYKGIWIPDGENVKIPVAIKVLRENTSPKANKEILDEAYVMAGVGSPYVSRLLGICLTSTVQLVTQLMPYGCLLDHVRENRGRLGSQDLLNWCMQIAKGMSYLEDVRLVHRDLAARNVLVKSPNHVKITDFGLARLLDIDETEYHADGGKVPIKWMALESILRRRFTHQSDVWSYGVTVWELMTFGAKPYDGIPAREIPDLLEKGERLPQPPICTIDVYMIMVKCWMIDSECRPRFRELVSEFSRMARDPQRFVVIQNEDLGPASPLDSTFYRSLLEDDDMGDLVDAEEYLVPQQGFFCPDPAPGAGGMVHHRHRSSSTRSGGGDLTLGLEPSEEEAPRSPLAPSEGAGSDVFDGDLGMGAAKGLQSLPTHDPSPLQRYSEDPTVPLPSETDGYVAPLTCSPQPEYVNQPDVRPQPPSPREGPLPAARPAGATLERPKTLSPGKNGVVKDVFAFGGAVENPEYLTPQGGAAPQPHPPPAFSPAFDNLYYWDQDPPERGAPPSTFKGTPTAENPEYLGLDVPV

In the case of CS(=O)(=O)CCNCc1ccc(-c2ccc3c(Nc4ccc(OCc5cccc(F)c5)c(Cl)c4)ncnc3c2)o1 [GW-2016], the Published (EGFR) is given as 11 (D. W. Rusnak et al., Mol. Cancer Ther. 1, 85 (2001)) nM and the Published (ERBB2) is given as 9.2 (D. W. Rusnak et al., Mol. Cancer Ther. 1, 85 (2001)) nM.
For CCc1nc(-c2ccc(OC)cc2)[nH]c1-c1ccncc1 [SB202474], the “decrease of the amount of phage-displayed p38 bound to the solid support” value (p38α [1]) was “neither SB202474 nor purvalanol A had a significant effect”.
In the case of CC(C)[C@H](CO)Nc1nc(Nc2cccc(Cl)c2)c2ncn(C(C)C)c2n1 [purvalanol A], the “decrease of the amount of phage-displayed p38 bound to the solid support” value (p38α [1]; competition with immobilized SB202190, FIG. 1B) is reported as “neither SB202474 nor purvalanol A had a significant effect”.
For Oc1ccc(-c2nc(-c3ccncc3)c(-c3ccc(F)cc3)[nH]2)cc1 [SB202190], the “binding (association) kinetics” value (p38α [1]; p38, known and also observed in the competition assays) is given as “fast” and the Published (p38α [2]) is given as 37 (B. Frantz et at., Biochemistry 37, 13846 (1998)). nM.
For O=C1c2ccccc2-c2n[nH]c3cccc1c23 [CC-401], the Published (JNK2) is listed as 110 (Z. Han et al., J. Clin. Invest. 108, 73 (2001)) nM.
